The results in this text go back to patent US20190255114A1, “STORAGE OF PLATELETS” (University of Kentucky Research Foundation, priority 2018, published 2019).

The structures appear in SMILES notation.

Experiment [1] has as its system PRP from C57BL/6 mice. Nature of the experiment: Cold storage of mouse PRP: aggregation and platelet counts. Conditions: PRP with EGTA. The class given is cell-based. An excerpt:
This conclusion is drawn based on the experiments using washed platelets. Although a small portion of platelet products uses platelet additive solution (PAS), most platelet products used for transfusion are in plasma. Therefore, whether PRP has a similar phenotype as observed in washed platelets was examined.

Experiment [2] concerns washed platelets from C57BL/6J mice. Nature of the experiment: Thrombin-induced platelet aggregation. The class given is cell-based. The procedure:
Platelets were then added with buffer or 1 mM CaCl2). Washed platelets suspended in Tyrode's solution with 1 mM CaCl2 were used as a control. Platelet aggregation was induced by addition of thrombin (0.025 U/ml).

For experiment [3], the target named is T1, αIIbβ3 (Mus musculus, UniProt O54890+Q9QUM0).
T1 construct: Washed platelets from C57BL/6J mice suspended in Tyrode's solution; endogenous in cells; host or cells: washed platelets from C57BL/6J mice
T1 sequence (Q9QUM0 32-1033): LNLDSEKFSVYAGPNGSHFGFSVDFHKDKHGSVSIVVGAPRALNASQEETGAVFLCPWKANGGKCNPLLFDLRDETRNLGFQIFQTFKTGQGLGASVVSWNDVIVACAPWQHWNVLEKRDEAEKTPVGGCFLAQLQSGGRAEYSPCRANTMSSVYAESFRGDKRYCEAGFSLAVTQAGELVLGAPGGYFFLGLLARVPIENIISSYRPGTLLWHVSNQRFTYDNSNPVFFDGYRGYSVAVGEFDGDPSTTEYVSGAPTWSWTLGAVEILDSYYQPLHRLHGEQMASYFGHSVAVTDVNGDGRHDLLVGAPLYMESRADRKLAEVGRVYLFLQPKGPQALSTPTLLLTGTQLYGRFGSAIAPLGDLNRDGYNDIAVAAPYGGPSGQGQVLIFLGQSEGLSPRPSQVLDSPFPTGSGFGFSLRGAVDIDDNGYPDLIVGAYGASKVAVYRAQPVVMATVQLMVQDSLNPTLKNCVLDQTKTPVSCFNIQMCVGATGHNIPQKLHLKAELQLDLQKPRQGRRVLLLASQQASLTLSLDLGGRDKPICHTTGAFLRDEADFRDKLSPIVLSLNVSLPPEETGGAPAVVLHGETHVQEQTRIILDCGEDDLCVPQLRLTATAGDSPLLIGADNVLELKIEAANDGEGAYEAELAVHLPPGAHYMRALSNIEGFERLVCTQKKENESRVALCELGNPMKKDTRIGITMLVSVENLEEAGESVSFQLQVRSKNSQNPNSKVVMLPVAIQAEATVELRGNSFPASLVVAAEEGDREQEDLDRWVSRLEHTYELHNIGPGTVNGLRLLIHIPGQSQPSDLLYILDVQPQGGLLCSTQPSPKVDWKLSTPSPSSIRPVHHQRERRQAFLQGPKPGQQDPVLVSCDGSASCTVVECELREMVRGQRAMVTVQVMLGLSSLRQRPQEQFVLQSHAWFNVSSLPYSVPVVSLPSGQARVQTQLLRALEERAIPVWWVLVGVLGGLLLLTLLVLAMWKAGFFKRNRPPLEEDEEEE
T1 sequence (O54890 26-787): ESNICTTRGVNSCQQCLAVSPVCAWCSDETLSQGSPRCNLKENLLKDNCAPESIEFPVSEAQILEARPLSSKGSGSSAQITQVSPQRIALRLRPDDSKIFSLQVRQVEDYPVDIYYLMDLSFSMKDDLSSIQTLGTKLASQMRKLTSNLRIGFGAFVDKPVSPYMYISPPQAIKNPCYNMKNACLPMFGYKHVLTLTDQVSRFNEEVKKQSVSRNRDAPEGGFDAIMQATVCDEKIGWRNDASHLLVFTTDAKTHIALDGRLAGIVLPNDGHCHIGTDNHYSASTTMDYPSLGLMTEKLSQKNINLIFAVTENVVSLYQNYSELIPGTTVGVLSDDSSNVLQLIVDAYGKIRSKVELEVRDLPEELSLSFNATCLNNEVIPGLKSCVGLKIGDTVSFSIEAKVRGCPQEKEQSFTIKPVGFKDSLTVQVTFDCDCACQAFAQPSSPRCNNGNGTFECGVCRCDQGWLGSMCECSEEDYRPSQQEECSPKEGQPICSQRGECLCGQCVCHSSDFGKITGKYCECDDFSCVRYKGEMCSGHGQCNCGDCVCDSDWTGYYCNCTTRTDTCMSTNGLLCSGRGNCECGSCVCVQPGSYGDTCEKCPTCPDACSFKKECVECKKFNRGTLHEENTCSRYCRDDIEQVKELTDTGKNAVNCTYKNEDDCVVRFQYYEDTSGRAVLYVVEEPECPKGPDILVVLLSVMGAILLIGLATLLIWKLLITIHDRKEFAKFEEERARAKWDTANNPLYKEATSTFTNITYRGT
As to the kind of experiment: Thrombin-induced fibrinogen binding to platelets (integrin ligand binding function). The class given is cell-based, C57BL/6J mice. Conditions: 100 μM EGTA. As to the method: Platelets were then added with buffer or 1 mM CaCl2). Washed platelets suspended in Tyrode's solution with 1 mM CaCl2 were used as a control. Platelets were incubated with Oregon Green-labeled fibrinogen and thrombin (0.1 U/ml) at 22° C. for 30 min. Quantitative results were expressed as fibrinogen binding indices (geomean of fluorescence intensity of stimulated platelets/geomean of fluorescence intensity of unstimulated platelets; n=3).

In experiment [4] the test system is washed GFP platelets. As to the kind of experiment: Clearance of transfused cold-stored washed GFP platelets (flow cytometry). In kind it is in vivo, C57BL/6J mice. Conditions: 50 uM EGTA, stored at 4° C. for 24 hours, retro-orbital injection. The procedure: To monitor the life span of transfused platelets in circulation, a method that can easily differentiate the transfused platelets from recipient platelets was developed. Platelets from C57BL/6-Tg(CAGEGFP)1 Osb/J mice (GFP mice) (From Jackson Laboratories) are GFP positive that are distinct from the recipient platelets by flow cytometry assay (FIG. 6A). C57BL/6J mice were injected retro-orbitally with washed GFP platelets (2.5×10^8 per mouse). 60 μl blood was collected from mice and PRP was analyzed by flow cytometry. Quantitative results were expressed as percentage of survived transfused platelets (GFP positive cells at 5 min after transfusion was set to 100%; mean±SD; n=5). […]
C57BL/6J mice were injected retro-orbitally with fresh washed GFP platelets or GFP platelets stored at 4° C. for 24 hours (2.5×10^8 per mouse) with or without 1 mM RGDS. Blood was collected from mice and platelets were analyzed by flow cytometry. Quantitative results were expressed as percentage of survived transfused platelets (GFP positive cells of transfused fresh platelets at 5 min after transfusion was set to 100%, n=4). […]
Blood was collected from mice and platelets were analyzed by flow cytometry. Quantitative results were expressed as percentage of survived transfused platelets (GFP positive cells of transfused fresh platelets at 5 min after transfusion was set to 100%, n=4). […]
A general note: A flow cytometer gives signals particle by particle.

The test system of experiment [5] is washed platelets from C57BL/6J mice. As to the kind of experiment: Platelet adhesion and spreading on fibrinogen. The following applies: EGTA 100 μM. In kind it is cell-based. As to the method: Platelets were then added with buffer or 1 mM CaCl2). Washed platelets suspended in Tyrode's solution with 1 mM CaCl2 were used as a control. Platelets were then added to polystyrene dishes coated with 50 μg/mL of fibrinogen and incubated at 37° C. for 60 minutes and labeled with Rhodamine-Phalloidin and photographed using a fluorescence microscope. […] This conclusion was further confirmed by a fibrinogen binding assay.

Experiment [6] concerns PRP prepared from healthy donors. Nature of the experiment: Cold storage of human PRP: platelet counts. In kind it is cell-based. The following applies: human PRP (ACD anticoagulant), various time points. The procedure: Platelet counts were monitored at various time points. […] Fibrinogen binding to platelets increased after cold storage (FIG. 14B). […] The amount of serotonin secreted in the supernatant was then measured.

Experiment [7] has as its system cold-stored PRP from C57BL/6-Tg(CAGEGFP)1 Osb/J. Nature of the experiment: Clearance of transfused cold-stored GFP platelets in PRP. In kind it is in vivo, C57BL/6J mice. The following applies: inclusion of EGTA, retro-orbital injection. The procedure:
C57BL/6J mice were injected retro-orbitally with fresh or cold-stored PRP (2.5×10^8 per mouse) from C57BL/6-Tg(CAGEGFP)1 Osb/J. Blood was collected from the recipients and platelets were analyzed by flow cytometry, n=4). Rapid clearance of cold-stored platelets in PRP is less severe than washed platelets.

The subject of experiment [8] is washed platelets from C57BL/6 mice. Nature of the experiment: Cold storage of washed mouse platelets: aggregation and single platelet counts. The following applies: presence of EGTA, 4° C. for various time. In kind it is cell-based. The procedure:
To investigate the mechanism of the rapid clearance after cold storage, washed platelets from C57BL/6 mice were suspended in Ca^++ free Tyrode's solution (12 mM NaHCO3, 138 mM NaCl, 5.5 mM glucose, 2.9 mM KCl, 2 mM MgCl2, 0.42 mM NaH2PO4, 10 mM HEPES, pH 7.4). and stored at RT or 4° C. Washed platelets from C57BL/6 mice were stored at RT or 4° C. for 24 hours. After storage, platelets were incubated with Oregon Green-labeled fibrinogen at 22° C. for 30 min. Fibrinogen binding to platelets was analyzed by flow cytometry. […] To confirm this observation, single platelet count was measured using a HEMAVET HV950FS multispecies hematology analyzer. Indeed, platelet counts were reduced dramatically after platelets were stored at 4° C. for over 24 hours (FIG. 1B).
To determine the molecular mechanism by which cold induces platelet activation, washed platelets prepared from C57BL/6 mice were stored at RT, cold, or cold with O-sialoglycoprotein endopeptidase (OSGE). […] GPIbα-dependent platelet activation is one of the major mechanisms leading to rapid clearance of cold-stored platelets.
If cold-induced aggregation is due to integrin activation, integrin inhibitors should be able to inhibit this process. Washed platelets from C57BL/6 mice, suspended in Ca^++ free Tyrode's solution, were added with 1 mM RGDS and stored at 4° C. for 24 hours. […]

`O=C(O)CN(CCOCCOCCN(CC(=O)O)CC(=O)O)CC(=O)O` [EGTA, ethylene glycol-bis(β-aminoethyl ether)-N,N,N′,N′-tetraacetic acid]: in experiment [1] (4° C. for various time), the “reduction in platelet counts by cold storage” value is recorded as “effectively inhibited reduction in platelet counts”. The “platelet aggregation in PRP” value in experiment [1] (cold storage) was “inhibited platelet aggregation”. In addition, in experiment [2] (EGTA 100 μM at RT, thrombin 0.025 U/ml), the “platelet aggregation induced by thrombin” value is reported as “inhibited platelet aggregation”. In experiment [2] (EGTA 100 μM, then 1 mM CaCl2), the “reversibility of the inhibition of platelet aggregation” value is reported as “reversible”. Also, in experiment [3] (then 1 mM CaCl2), the “reversal of the inhibition of fibrinogen binding” value was “reversed”. In addition, the “thrombin-induced fibrinogen binding to platelets” value in experiment [3] (thrombin 0.1 U/ml, 22° C. for 30 min) is given as “completely inhibited”. In addition, in experiment [4], the “platelets that stayed in circulation for more than 2 hours” value was “About 75%” and the “rapid clearance of cold-stored platelets” value was “significantly inhibited rapid clearance”. Also, the “platelet adhesion and spreading on fibrinogen” value in experiment [5] (50 μg/mL fibrinogen, 37° C. for 60 minutes) is “inhibited platelet adhesion and spreading on fibrinogen”. The “reversal of the inhibition of adhesion and spreading” value in experiment [5] (then 1 mM CaCl2) is “completely reversed”. Also, in experiment [6], the “decrease of platelet counts after storage at 4° C.” value was “inhibited”. For the same compound, in experiment [7], the “quick clearance of cold-stored platelets in PRP” value was “significantly reduced quick clearance”. For the same compound, in experiment [8], the cold-induced platelet aggregation result is reported as “completely inhibited cold-induced platelet aggregation” and the “reduction in platelet counts” value is on record as “completely inhibited”.
